We go through five compounds from US11413278B2, “Compounds and methods for promoting stress resistance” (priority 2015, dated 2022).

The structures appear in SMILES notation. Like-named read-outs stand apart in the source and are kept apart here.

The test system of one assay is WI-38 cells. Briefly: MMS resistance assay. The assay is classed as cell-based, human. The conditions noted are these: for Assay 3: MMS-resistant / Assay 5: Triple resistant: YES/NO; for Assay 3: MMS-resistant: * indicates partial; for Assay 5: Triple resistant: H2O2, cadmium and MMS; for Triple resistant: H2O2, CdCl2 and MMS; for fold induction at 10 µM: Homo sapiens, 12 h, normalized ATP measurement. The procedure, abridged: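 Resistance to CdCl2 or MMS stress (12 h exposure) was scored in WI-38 fibroblasts pretreated with compound at 0.25–20 μM final, five doses, technical triplicates. MMS plates had compound added 24 h before MMS, after a shift to serum-free DMEM+2% BSA. Significance came from a global variance t-test over two independent runs.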

In the next assay the test system is FOXO3. Briefly: qPCR analysis of FOXO3-regulated genes. In kind it is cell-based, human. The conditions noted are these: for fold induction at 10 µM: Homo sapiens; for K = Sestrin induction: score. The procedure, abridged: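 FOXO3 target-gene expression quantified by qPCR normalised to B2M, PPIA and GAPDH, in WI-38 cells after 24 h exposure to 10 μM compound. Some runs used cells first transfected 36 h with 10 nM FOXO3 or NRF2 siRNA and replated ~24 h before dosing.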

The test system of the next assay is C. elegans. In kind it is in vivo, Caenorhabditis elegans. The conditions noted are these: in vivo. The procedure, abridged: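 Survival under oxidative stress: 500 μM H2O2 (final) was added to day-4 adults kept in liquid with compounds, FUdR present, 4 wells per molecule and 0.2% DMSO controls, with daily scoring of viability.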
Setting [1] is: score in summary of 38 core set hits.
The mark [2] stands for this setting: 10 μM, 24 hrs, WI-38 cells, qPCR, normalized to B2M, n = 4, read-out: TXNIP expression, normalized fold change (FOXO3-regulated gene).
The mark [3] stands for this setting: WI-38 cells, 10 μM, 24 hrs, n=4, qPCR normalized by B2M, read-out: DDB1 Normalized fold change.
Setting [4] is: WI-38 cells, 10 μM, 24 hrs, n=4, qPCR normalized by B2M, read-out: GADD45A Normalized fold change.
Where [5] appears, read: WI-38 cells, 10 μM, 24 hrs, n=4, qPCR normalized by B2M, read-out: SESN1 Normalized fold change.
Where [6] appears, read: fold change, qPCR, WI-38 cells, 10 μM, 24 hrs, read-out: Summary of effects on FOXO3-regulated genes: TXNIP.
Where [7] appears, read: qPCR, WI-38 cells, 10 μM, n=4, 24 hrs, normalized by B2M, read-out: CAT Normalized fold change.
[8] abbreviates: qPCR, WI-38 cells, 10 μM, n=4, 24 hrs, normalized by B2M, read-out: SOD2 Normalized fold change.
Setting [9] is: qPCR, WI-38 cells, 10 μM, n=4, 24 hrs, normalized by B2M, read-out: TXNIP Normalized fold change.
Where [10] appears, read: Exp. 1, WI-38 cells, read-out: Exp. 1, under MMS stress treatment, at 10 uM (fold change).
The mark [11] stands for this setting: Exp. 2, WI-38 cells, read-out: Exp. 2, under MMS stress treatment, at 10 uM (fold change).
The mark [12] stands for this setting: 24 h, Assay 10(m), at 10 uM, qPCR, read-out: Induction of FOXO3-regulated genes: GADD45A normalized fold-change.
Setting [13] is: 10 μM, 24 hrs, WI-38 cells, qPCR, normalized to B2M, n = 4, read-out: GADD45A expression, normalized fold change (FOXO3-regulated gene).
The mark [14] stands for this setting: fold change, qPCR, WI-38 cells, 10 μM, 24 hrs, read-out: Summary of effects on FOXO3-regulated genes: GADD45A.
The mark [15] stands for this setting: 24 h, Assay 10(m), at 10 uM, qPCR, read-out: Induction of FOXO3-regulated genes: TXNIP normalized fold-change.

As for `CNC(=O)/C(C#N)=C/c1c(Oc2ccc(C(C)(C)C)cc2)nc2ccccn2c1=O` [Gr-5D], the “Assay 3: MMS-resistant” value with WI-38 cells is listed as “YES”. The “Assay 5: Triple resistant” value with WI-38 cells is reported as “YES”. The “B = MMS resistant” value in the assay with WI-38 cells (setting [1]) worked out at 0; in the assay with WI-38 cells (summary score), 1. For the same compound, the “D = Triple resistant” value in the assay with WI-38 cells (summary score) was 2. In addition, the “E = Potential FOXO3 Activation” value in the assay on FOXO3 (2-point score) and in the assay with FOXO3 (summary score) was 0 in each case. The fold induction at 10 µM in the assay on FOXO3 (setting [2]) stood at 0.67; in the assay with FOXO3 (setting [3]) it was 0.984; with FOXO3 (setting [4]) it was 0.698; in the assay with FOXO3 (setting [5]), 1.1; with FOXO3 (setting [6]), 0.67; with FOXO3 (setting [7]), 1.27. The fold induction at 10 µM in the assay on FOXO3 (setting [8]) came to 1.12; with FOXO3 (setting [9]) it was 0.669. In the assay with FOXO3, the “K = Sestrin induction” value is on record as 0. Further, the “L = H2O2-resistance in worms” value in the assay on C. elegans amounted to 0. For the same compound, the “N = H2O2-resistance in woms” value with C. elegans came to 0.
Turning to `Cc1cc(N)n(-c2ccccc2C(=O)O)n1` [Gr-6A], the MMS-resistant entry in the assay with WI-38 cells is on record as “YES”; in the assay on WI-38 cells (WI-38 cells, 10 μM) it was “YES”. For the same compound, in the assay on WI-38 cells (0.25 μM to 20 μM, repurchased molecules), the “Multiplex resistance to cadmium, MMS and H2O2” value was “reproducibly conferred multiplex resistance”. The Triple resistant entry was “YES” in the assay with WI-38 cells and “YES” in the assay with WI-38 cells (WI-38 cells, 10 μM). For the same compound, the fold induction at 10 µM was determined as 2.2 in the assay on WI-38 cells (setting [10]); 7.2 with WI-38 cells (setting [11]); 0.79 in the assay on FOXO3 (setting [12]); 0.79 with FOXO3 (setting [13]); 1.05 in the assay on FOXO3 (setting [3]); 0.787 with FOXO3 (setting [4]). The fold induction at 10 µM with FOXO3 (setting [5]) turned out to be 1.18; in the assay with FOXO3 (setting [14]), 0.79; in the assay with FOXO3 (setting [7]) it was 1.2; in the assay on FOXO3 (setting [8]), 0.868; with FOXO3 (setting [9]), 1.14. Moreover, in the assay on WI-38 cells, the “Assay 3: MMS-resistant” value is given as “YES”. The “Assay 5: Triple resistant” value in the assay with WI-38 cells is on record as “YES”. Besides, the “B = MMS resistant” value in the assay with WI-38 cells (setting [1]) and in the assay with WI-38 cells (summary score) was 1 in each case. Besides, the “D = Triple resistant” value in the assay with WI-38 cells (summary score) was determined as 2. The “E = Potential FOXO3 Activation” value with FOXO3 (2-point score) and with FOXO3 (summary score) was 0 each time. The “K = Sestrin induction” value in the assay with FOXO3 was 0. Besides, in the assay with C. elegans, the “H2O2-resistance assay, 1st experiment” value is on record as “YES;”. The “L = H2O2-resistance in worms” value in the assay with C. elegans came out at 0. Besides, in the assay on C. elegans, the “N = H2O2-resistance in woms” value came to 0.
`O=C(/C=C/c1cn(-c2ccccc2)nc1-c1cccnc1)c1ccccc1` [Gr-6B]: the fold induction at 10 µM turned out to be 2.12 with WI-38 cells (setting [10]); 1.22 in the assay with WI-38 cells (setting [11]); 1.19 with FOXO3 (24 h, Assay 10(m), at 10 uM, qPCR, read-out: Induction of FOXO3-regulated genes: DDB1 normalized fold-change); 1.19 in the assay with FOXO3 (10 μM, 24 hrs, WI-38 cells, qPCR, normalized to B2M, n = 4, read-out: DDB1 expression, normalized fold change (FOXO3-regulated gene)); 1.19 with FOXO3 (setting [3]); 1.26 in the assay on FOXO3 (setting [4]). For the same compound, the fold induction at 10 µM was determined as 1.25 with FOXO3 (setting [5]); 1.19 in the assay with FOXO3 (fold change, qPCR, WI-38 cells, 10 μM, 24 hrs, read-out: Summary of effects on FOXO3-regulated genes: DDB1); 1.11 in the assay with FOXO3 (setting [7]); 1.14 in the assay with FOXO3 (setting [8]); 0.861 in the assay on FOXO3 (setting [9]). Besides, in the assay on WI-38 cells, the “Assay 3: MMS-resistant” value is given as “YES”. The “Assay 5: Triple resistant” value in the assay with WI-38 cells is “YES”. For the same compound, the “B = MMS resistant” value with WI-38 cells (setting [1]) is 0; in the assay on WI-38 cells (summary score), 1. Moreover, the “D = Triple resistant” value in the assay on WI-38 cells (summary score) came to 2. Also, the “E = Potential FOXO3 Activation” value in the assay on FOXO3 (2-point score) and in the assay on FOXO3 (summary score) was 0 in each case. Moreover, the “K = Sestrin induction” value in the assay on FOXO3 stood at 0. Besides, in the assay with C. elegans, the “L = H2O2-resistance in worms” value is given as 0. The “N = H2O2-resistance in woms” value in the assay on C. elegans came to 0.
In the case of `N=C1S/C(=C\c2cn(-c3ccccc3)nc2-c2cccs2)C(=O)N1c1nccs1` [Gr-6C], the “B = MMS resistant” value in the assay on WI-38 cells (setting [1]) and in the assay on WI-38 cells (summary score) was 0 in each case. Also, the “D = Triple resistant” value with WI-38 cells (summary score) stood at 0. Also, the “E = Potential FOXO3 Activation” value in the assay on FOXO3 (2-point score) and in the assay with FOXO3 (summary score) was 0 throughout. In addition, the fold induction at 10 µM with FOXO3 (24 h, Assay 10(m), at 10 uM, qPCR, read-out: Induction of FOXO3-regulated genes: SESN1 normalized fold-change) was determined as 1.42; in the assay on FOXO3 (setting [15]) it was 0.57; in the assay with FOXO3 (setting [13]), 2.17; with FOXO3 (10 μM, 24 hrs, WI-38 cells, qPCR, normalized to B2M, n = 4, read-out: SESN1 expression, normalized fold change (FOXO3-regulated gene)), 1.42; in the assay with FOXO3 (setting [2]), 0.57; in the assay with FOXO3 (setting [3]) it was 1.22. Besides, the fold induction at 10 µM in the assay with FOXO3 (setting [4]) is 2.17; in the assay with FOXO3 (setting [5]), 1.42; in the assay with FOXO3 (setting [14]), 2.17; in the assay with FOXO3 (fold change, qPCR, WI-38 cells, 10 μM, 24 hrs, read-out: Summary of effects on FOXO3-regulated genes: SESN1) it was 1.42; in the assay with FOXO3 (setting [6]), 0.57; with FOXO3 (setting [7]), 1.13. Also, the fold induction at 10 µM in the assay on FOXO3 (setting [8]) amounted to 1.01; in the assay with FOXO3 (setting [9]) it was 0.568. Moreover, in the assay on FOXO3, the “K = Sestrin induction” value was 0. Further, the “L = H2O2-resistance in worms” value with C. elegans is on record as 0. In the assay on C. elegans, the “N = H2O2-resistance in woms” value is recorded as 0.
On to `O=C(NCc1cccnc1)/C(=C\c1cccc(Oc2ccccc2)c1)S(=O)(=O)c1ccccc1` [Gr-7A], for which the fold induction at 10 µM in the assay on WI-38 cells (setting [10]) turned out to be 0.96; in the assay with WI-38 cells (setting [11]), 2.21; in the assay on FOXO3 (setting [12]) it was 1.91; in the assay with FOXO3 (24 h, Assay 10(m), at 10 uM, qPCR, read-out: Induction of FOXO3-regulated genes: SOD2 normalized fold-change), 1.78; with FOXO3 (setting [15]), 0.12; with FOXO3 (setting [13]), 1.91. For the same compound, the fold induction at 10 µM in the assay with FOXO3 (setting [2]) is 0.12; with FOXO3 (setting [3]) it was 0.979; in the assay with FOXO3 (setting [4]), 1.91; in the assay with FOXO3 (setting [5]) it was 1.14; in the assay on FOXO3 (setting [14]), 1.91; in the assay on FOXO3 (setting [6]), 0.12. Also, the results for the fold induction at 10 µM with FOXO3 (setting [7]), with FOXO3 (setting [8]) and in the assay with FOXO3 (setting [9]) were 1.15, 1.78 and 0.12, respectively. For the same compound, the “B = MMS resistant” value with WI-38 cells (setting [1]) and in the assay on WI-38 cells (summary score) was 0 each time. The “D = Triple resistant” value with WI-38 cells (summary score) was 0. Moreover, the “SOD2 expression, normalized fold change (FOXO3-regulated gene)” value in the assay with FOXO3 (10 μM, 24 hrs, WI-38 cells, qPCR, normalized to B2M, n = 4) was “SOD2 1.78, fold”. In addition, the “E = Potential FOXO3 Activation” value in the assay with FOXO3 (2-point score) and in the assay on FOXO3 (summary score) was 2 throughout. Further, the “Potential FOXO3 Activation (>=2 target genes induced, by >=1.5-fold)” value in the assay with FOXO3 (Assay 11(n)) was “YES”. Also, in the assay on FOXO3 (fold change, qPCR, WI-38 cells, 10 μM, 24 hrs), the “Summary of effects on FOXO3-regulated genes: SOD2” value is “SOD2 1.78,”. In the assay with FOXO3, the “K = Sestrin induction” value was determined as 0. In addition, the “H2O2-resistance assay, 1st experiment” value in the assay with C. elegans is on record as “YES;”. Moreover, the “L = H2O2-resistance in worms” value in the assay with C. elegans was determined as 1. The “N = H2O2-resistance in woms” value with C. elegans is 1. In addition, the “Protection of C. elegans from hydrogen peroxide” value in the assay on C. elegans is “could protect C. elegans from hydrogen peroxide”.
